The record followed here is the OligoGym collection.

What all share (conditions): ASO
Data set [1] concerns the target RELA.
Data set [2] deals with BIRC5.
The target in data set [3] is CTNNB1.

These antisense oligonucleotides have a phosphorothioate backbone; sugars and methylation of C are not fully specified. Where only a bound is given, the exact number is not on record here.
Also: test concentration or dose not given here.

Regarding GACAGCGTTCCTTCCCCA, the remaining target (mRNA or protein) (fraction of control) in data set [1] was at least 1.
Take GACGAGCCATTCGCCGGA: the remaining target (mRNA or protein) (fraction of control) in data set [1] is 0.52.
In data set [2], GACTTAGAATGGCTTTGT showed a remaining target (mRNA or protein) (fraction of control) of 0.63.
On the same count and under the same terms, under GAGGAGCGGCCAGCATGT stands 0.53.
Turning to GATCTGACTCAGCAGGGC, the remaining target (mRNA or protein) (fraction of control) in data set [1] was determined as 0.27.
Sequence GCACATCAGCTTGCGAAA displayed a remaining target (mRNA or protein) (fraction of control) in data set [1] of at least 1.
In turn, GCACGAACAAGCAACTGAAC returned a remaining target (mRNA or protein) (fraction of control) in data set [3] of 0.37.
The sequence GCACTTGTAGCGGAAGCG returned a remaining target (mRNA or protein) (fraction of control) in data set [1] of at least 1.
On the same count and under the same terms, for GCAGTCCTTTCCTACAAG the value was 0.95.
In the case of GCCATTGTCCACGCTGGATT, the remaining target (mRNA or protein) (fraction of control) in data set [3] is at least 1.
For GCCGAGATGACCTCCAGA, the remaining target (mRNA or protein) (fraction of control) in data set [2] amounted to 0.34.
Turning to GCCGGTGAGGAGGGTCCT, the remaining target (mRNA or protein) (fraction of control) in data set [1] was determined as 0.71.
On to GCGATTCAAATCTGGCGG, for which, in data set [2], the remaining target (mRNA or protein) (fraction of control) was at least 1.
In the case of GCTCAGGGATGACGTAAA, the remaining target (mRNA or protein) (fraction of control) in data set [1] came out at 0.45.
In data set [2], GCTTCTTGACAGAAAGGA came in with a remaining target (mRNA or protein) (fraction of control) of 0.65.
Take GGATGCGCTGACTGATAG: the remaining target (mRNA or protein) (fraction of control) in data set [1] came to 0.31.
GGCGCAGCCCTCCAAGAA registered a remaining target (mRNA or protein) (fraction of control) in data set [2] of 0.62.
The sequence GGCTGACAGACACACGGC yielded a remaining target (mRNA or protein) (fraction of control) in data set [2] of 0.59.
On the same count and under the same terms, under GGTCGTCATCTGGCTCCC stands 0.64; under GGTTAATTCTTCAAACTG, at least 1.
Regarding GTACGCACAAGAGCCTCTAT, the remaining target (mRNA or protein) (fraction of control) in data set [3] came to 0.29.
On the same count and under the same terms, under GTCCTGAGCAAGTTCACAGA stands 0.37.
On to GTCTGTGCTGTTGCCAAG, for which, in data set [1], the remaining target (mRNA or protein) (fraction of control) turned out to be 0.87.
In turn, GTTGTATGGTATACTTCAAA showed a remaining target (mRNA or protein) (fraction of control) in data set [3] of 0.69.
As for GTTGTTGGTCTGGATGCG, in data set [1], the remaining target (mRNA or protein) (fraction of control) turned out to be 0.63.
With TACGCCAGACTTCAGCCC, the remaining target (mRNA or protein) (fraction of control) in data set [2] worked out at 0.99.
TAGAGTGATTATGAATTAAT showed a remaining target (mRNA or protein) (fraction of control) in data set [3] of 0.7.
Still for that read-out and setting: for TAGCAGTTTTGTCAGTTCAG the value was at least 1.
TAGCCATTGATCTTGATG displayed a remaining target (mRNA or protein) (fraction of control) in data set [1] of 0.78.
With TAGCCATTGTCCACGCTGGA, the remaining target (mRNA or protein) (fraction of control) in data set [3] amounted to 0.23.
Regarding TCACACACTGGATTCCCA, the remaining target (mRNA or protein) (fraction of control) in data set [1] was determined as 0.81.
The same measure, in the same setting: under TCACACAGTAGGAAGATC stands 0.74; under TCACTAGGCGAGTTATAG, 0.53.
Sequence TCAGATTCAACAGGCACC displayed a remaining target (mRNA or protein) (fraction of control) in data set [2] of at least 1.
TCAGCTTGAGTAGCCATTGT returned a remaining target (mRNA or protein) (fraction of control) in data set [3] of 0.31.
TCCAGCTCCTTGAAGCAG registered a remaining target (mRNA or protein) (fraction of control) in data set [2] of 0.68.
On the same count and under the same terms, under TCCCTCACTTCTCACCTG stands 0.71; under TCGCAGTTTCCTCAAATT, 0.63.
Take TCGCCACACCTTCATTCCTA: the remaining target (mRNA or protein) (fraction of control) in data set [3] came out at 0.37.
Turning to TCTGGAAACTGTGGATGC, the remaining target (mRNA or protein) (fraction of control) in data set [1] is at least 1.
For the sequence TCTTATTGTTGGTTTCCT, in data set [2], the remaining target (mRNA or protein) (fraction of control) is at least 1.
On the same count and under the same terms, for TCTTGGCTCTTTCTCTGT the value was 0.66.
On the same count and under the same terms, for TGAGAAAGGGCTGCCAGG the value was 0.54.
TGAGTAGCCATTGTCCACGC registered a remaining target (mRNA or protein) (fraction of control) in data set [3] of 0.35.
TGCCCAGAAGGAAACACC displayed a remaining target (mRNA or protein) (fraction of control) in data set [1] of 0.66.
Still for that read-out and setting: under TGTATCTGGCAGGTACTG stands at least 1; under TGTCCTTTTACGTTTCTC, 0.74.
Sequence TGTGCTATTCTGTGAATT showed a remaining target (mRNA or protein) (fraction of control) in data set [2] of 0.8.
Still for that read-out and setting: for TGTTGTTAAACAGTAGAG the value was at least 1.
As to TGTTTTCAATGGGAGAATAA, the remaining target (mRNA or protein) (fraction of control) in data set [3] was determined as 0.63.
Still for that read-out and setting: under TTATTGCAAGTGAGGTTAGA stands 0.51.
With TTCGGTTCACTCGGCAGA, the remaining target (mRNA or protein) (fraction of control) in data set [1] was at least 1.
TTCTCTTGAAGCATCGTATC: the remaining target (mRNA or protein) (fraction of control) in data set [3] is 0.2.
TTCTGCACCTTGTCACAC yielded a remaining target (mRNA or protein) (fraction of control) in data set [1] of 0.37.
With TTCTTGAATGTAGAGATG, in data set [2], the remaining target (mRNA or protein) (fraction of control) is at least 1.
Consider TTGCTGCCAGTGACTAACAG, for which the remaining target (mRNA or protein) (fraction of control) in data set [3] was 0.46.
Take TTGGTGGTATCTGTGCTC: the remaining target (mRNA or protein) (fraction of control) in data set [1] was 0.53.
As to TTGTCCACGCTGGATTTTCA, the remaining target (mRNA or protein) (fraction of control) in data set [3] came to 0.52.
With TTTGAAAATGTTGATCTC, the remaining target (mRNA or protein) (fraction of control) in data set [2] turned out to be 0.92.
